According to PMC6556873, “Rapid Covalent-Probe Discovery by Electrophile-Fragment Screening” (Journal of the American Chemical Society, 2019):
Where two headings read alike, the source gives them in different places.

Legend:
NUDT7 = target: T1, NUDT7 (Homo sapiens, UniProt P0C024); design: Intact protein LC/MS covalent labelling, fragments in pools of five, 200 uM each, 4 °C; details: 24 h, 4 °C, pool of five; 200 µM; covalent
T1 construct: residues 14-235, E. coli, pNIC28-Bsa4, N-terminal His6 tag removed by TEV, construct 26672 Da
T1 sequence (P0C024 14-235): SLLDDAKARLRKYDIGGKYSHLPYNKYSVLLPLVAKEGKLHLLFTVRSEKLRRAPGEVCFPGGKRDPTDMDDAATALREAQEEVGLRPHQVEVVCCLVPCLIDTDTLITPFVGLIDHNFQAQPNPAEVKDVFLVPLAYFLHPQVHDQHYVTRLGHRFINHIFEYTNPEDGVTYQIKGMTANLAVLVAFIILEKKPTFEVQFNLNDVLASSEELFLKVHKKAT

OTUB2 (OTUB2A) = target: T2, OTUB2 (OTUB2A) (Homo sapiens, UniProt Q96DC9); design: Intact protein LC/MS covalent labelling, fragments in pools of five, 200 uM each, 4 °C; details: 24 h, 4 °C, pool of five; 200 µM; covalent
T2 construct: full length residues 1-234, E. coli BL21(DE3)-R3, His tag removed by TEV, construct 27312 Da
T2 sequence (Q96DC9 1-234): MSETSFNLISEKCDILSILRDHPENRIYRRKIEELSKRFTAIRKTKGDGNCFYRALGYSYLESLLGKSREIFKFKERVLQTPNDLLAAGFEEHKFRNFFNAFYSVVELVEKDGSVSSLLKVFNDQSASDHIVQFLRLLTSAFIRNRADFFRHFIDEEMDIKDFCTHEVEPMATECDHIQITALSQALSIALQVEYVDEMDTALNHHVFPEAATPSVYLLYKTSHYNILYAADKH

PCAF = target: T3, PCAF (Homo sapiens, UniProt Q92831); design: Intact protein LC/MS covalent labelling, fragments in pools of five, 200 uM each, 4 °C; details: 24 h, 4 °C, pool of five; 200 µM; covalent
T3 construct: gene KAT2B
T3 sequence (Q92831 whole entry, the tested form may be a part): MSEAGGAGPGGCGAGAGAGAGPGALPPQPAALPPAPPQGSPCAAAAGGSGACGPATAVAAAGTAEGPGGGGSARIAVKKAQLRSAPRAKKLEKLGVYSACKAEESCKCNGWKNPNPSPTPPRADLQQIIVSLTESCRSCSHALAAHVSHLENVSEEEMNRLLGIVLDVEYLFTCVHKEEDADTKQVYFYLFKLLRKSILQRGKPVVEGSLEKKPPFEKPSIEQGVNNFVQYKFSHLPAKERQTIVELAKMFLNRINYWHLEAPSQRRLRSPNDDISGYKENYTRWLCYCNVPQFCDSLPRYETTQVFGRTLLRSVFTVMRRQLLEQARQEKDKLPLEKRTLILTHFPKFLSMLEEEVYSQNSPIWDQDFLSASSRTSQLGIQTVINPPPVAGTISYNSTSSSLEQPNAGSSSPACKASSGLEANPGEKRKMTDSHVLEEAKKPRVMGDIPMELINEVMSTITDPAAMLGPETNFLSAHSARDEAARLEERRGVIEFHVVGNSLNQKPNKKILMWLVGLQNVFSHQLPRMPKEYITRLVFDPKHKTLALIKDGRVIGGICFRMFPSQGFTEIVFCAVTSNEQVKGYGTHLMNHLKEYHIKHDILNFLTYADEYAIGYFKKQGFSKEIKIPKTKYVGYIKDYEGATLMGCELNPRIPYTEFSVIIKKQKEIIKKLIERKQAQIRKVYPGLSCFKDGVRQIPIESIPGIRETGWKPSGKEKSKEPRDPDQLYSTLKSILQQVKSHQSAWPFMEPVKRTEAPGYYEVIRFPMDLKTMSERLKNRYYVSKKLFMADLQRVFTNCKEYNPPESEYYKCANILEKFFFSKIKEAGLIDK

BSA = target: T4, BSA (Bos taurus, UniProt P02769); design: Intact protein LC/MS covalent labelling, fragments in pools of five, 200 uM each, 4 °C; details: 24 h, 4 °C, pool of five; 200 µM; covalent
T4 construct: gene ALB
T4 sequence (P02769 whole entry, the tested form may be a part): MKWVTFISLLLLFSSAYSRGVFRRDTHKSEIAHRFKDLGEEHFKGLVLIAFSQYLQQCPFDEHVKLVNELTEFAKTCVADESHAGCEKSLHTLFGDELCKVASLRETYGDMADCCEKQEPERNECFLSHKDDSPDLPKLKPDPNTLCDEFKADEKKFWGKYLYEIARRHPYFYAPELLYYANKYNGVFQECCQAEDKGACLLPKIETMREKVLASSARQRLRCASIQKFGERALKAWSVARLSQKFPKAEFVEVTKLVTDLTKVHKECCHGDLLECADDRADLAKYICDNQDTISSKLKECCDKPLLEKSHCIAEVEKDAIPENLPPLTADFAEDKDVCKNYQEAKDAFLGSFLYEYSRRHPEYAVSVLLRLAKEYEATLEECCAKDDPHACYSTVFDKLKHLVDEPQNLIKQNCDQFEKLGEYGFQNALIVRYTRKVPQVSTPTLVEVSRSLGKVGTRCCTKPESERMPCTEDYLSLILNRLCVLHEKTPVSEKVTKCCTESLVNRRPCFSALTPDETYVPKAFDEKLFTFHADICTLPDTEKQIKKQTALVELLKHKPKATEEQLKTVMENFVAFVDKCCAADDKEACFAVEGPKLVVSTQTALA

in vitro [1] = assay: in vitro; design: species or system HB2, HEK293; details: human, ccd841 cells
in vitro [2] = assay: in vitro; design: species or system HB2, CCD841; details: human, hek293 cells
in vitro [3] = assay: in vitro; design: species or system CCD841, HEK293; details: human, hb2 cells, read-out: HB-2 Cells Viability (%)

SMILES | NUDT7 (NUDT7) | OTUB2 (OTUB2 (OTUB2A)) | PCAF (PCAF) | BSA (BSA) | viability at 48 h, 10 µM (in vitro [1]) [%] | viability at 48 h, 10 µM (in vitro [2]) [%] | viability at 48 h, 10 µM (in vitro [3]) [%]
CC(c1ccc(F)cc1)N(C)C(=O)CCl (stereo not shown) [PCM-0102783] | 0.19 | 0 | 0 | 0 | 47.8 | 30.3 | 47.3
Cc1ccsc1CN(C)C(=O)CCl [PCM-0102785] | 0.2 | 0 | 0 | 0 | 56.7 | 36 | 22.2
CC(C)(C)OC(=O)N1CCN(C(=O)CCl)CC1 [PCM-0102786] | 0 | 0 | 0 | 0 | 84 | 68.2 | 85.9
CN(Cc1ccccc1F)C(=O)CCl [PCM-0102787] | 0 | 0 | 0 | 0 | 72.2 | 57.9 | 57.7
Cc1nc(NC(=O)CCl)sc1-c1ccccc1 [PCM-0102788] | 0.36 | 0.09 | 0 | 0 | 23.8 | 26.7 | 35.7
CC1CC(C)CN(C(=O)CCl)C1 (stereo not shown) [PCM-0102789] | 0 | 0.08 | 0 | 0 | 83.1 | 61.8 | 102
O=C(CCl)NCc1cc(F)cc(F)c1 [PCM-0102790] | 0 | 0 | 0 | 0 | 71.3 | 74.1 | 98.6
CC(c1nc2ccccc2s1)N(C)C(=O)CCl (stereo not shown) [PCM-0102793] | 0 | 0.19 | 0 | 0 | 26.1 | 1 | 4.3
O=C(CCl)NCC1CCCc2ccccc21 (stereo not shown) [PCM-0102794] | 0 | 0.34 | 0 | 0 | 66.7 | 53.5 | 67.3
CC1CN(C(=O)CCl)CC(C)O1 (stereo not shown) [PCM-0102796] | 0 | 0 | 0 | 0 | 76.2 | 66.2 | 92.9
O=C(CCl)NCc1nc2ccccc2s1 [PCM-0102803] | 0 | 0.37 | 0 | 0 | 63.8 | 43 | 55.2
C=CC(=O)N1CCN(C(=O)c2ccc(Br)o2)CC1 [PCM-0102804] | 0 | 0 | 0 | 0 | 102 | 84.7 | 93.5
C=CC(=O)N1CCN(c2cc(C)nc(C)n2)CC1 [PCM-0102806] | 0 | 0 | 0 | 0 | 105 | 78.9 | 101
C=CC(=O)N1CCCC2(CNC(=O)O2)C1 (stereo not shown) [PCM-0102808] | 0 | 0.13 | 0 | 0 | 113 | 102 | 103
O=C(CCl)Nc1nc(-c2ccc(F)cc2)cs1 [PCM-0102809] | 0.37 | 0.21 | 0 | 0 | 63.1 | 1.7 | 5.1
CNC(=O)C1CCN(C(=O)CCl)CC1 [PCM-0102815] | 0 | 0.08 | 0 | 0 | 95.1 | 77.1 | 92.2
CC(C)(C)NC(=O)CNC(=O)CCl [PCM-0102817] | 0 | 0.41 | 0 | 0 | 87.5 | 101 | 102
O=C(CCl)NCC12CC3CC(CC(Br)(C3)C1)C2 [PCM-0102819] | 0.05 | 0.63 | 0 | 0 | 95 | 99.3 | 109
CC1CCc2ccccc2N1C(=O)CCl (stereo not shown) [PCM-0102822] | 0 | 0 | 0 | 0 | 39.6 | 54.7 | 92.2
O=C(CCl)N1CCC2(CC1)OCCO2 [PCM-0102823] | 0 | 0 | 0 | 0 | 99.2 | 91.5 | 98.2
C=CC(=O)NCc1cccc(C(F)(F)F)c1 [PCM-0102825] | 0 | 0 | 0 | 0 | 107 | 82.3 | 97.4
O=C(CCl)N1CCCC2CCCCC21 (stereo not shown) [PCM-0102826] | 0.07 | 0 | 0 | 0 | 32.5 | 27.9 | 33.7
COC(=O)C1(NC(=O)CCl)CCC(C)CC1 (stereo not shown) [PCM-0102827] | 0 | 0 | 0 | 0 | 96.8 | 93.6 | 102
CCC1CCCCN1C(=O)CCl (stereo not shown) [PCM-0102828] | 0.04 | 0 | 0 | 0 | 80.9 | 69.4 | 85.9
CC1CN(C(=O)CCl)CCO1 (stereo not shown) [PCM-0102830] | 0 | 0 | 0 | 0 | 99.1 | 85.9 | 101
CC1CCN(C(=O)CCl)C2CCCCC12 (stereo not shown) [PCM-0102831] | 0.37 | 0 | 0 | 0 | 6.8 | 5.6 | 14.7
O=C(CCl)N(C1CC1)C1CCS(=O)(=O)C1 (stereo not shown) [PCM-0102832] | 0 | 0.43 | 0 | 0 | 85.1 | 67.9 | 88.7
CC(C)(C)N(Cc1cccc(F)c1)C(=O)CCl [PCM-0102833] | 0 | 0 | 0 | 0 | 25.3 | 22.2 | 67.5
